Data from ChEMBL document CHEMBL1155191, “Simple dihydrosphyngosine analogues with potent activity against MDR-Mycobacterium tuberculosis” (2009).
Values after ≈ are worked out from the molar mass of the structure shown.

Key:
Type in all cases: functional
[1] = system: Mycobacterium tuberculosis; assay: Antimycobacterial activity against Mycobacterium tuberculosis H37Rv ATCC 27294 after 5 to 7 days by microplate alamar blue assay
[2] = system: Mycobacterium tuberculosis; assay: Ratio of ethambutol MIC to compound MIC for Mycobacterium tuberculosis H37Rv ATCC 27294
[3] = system: Mycobacterium tuberculosis; assay: Antimycobacterial activity against Mycobacterium tuberculosis CIB99 after 5 to 7 days by microplate alamar blue assay
[4] = system: Mycobacterium tuberculosis; assay: Ratio of ethambutol MIC to compound MIC for Mycobacterium tuberculosis CIB99

| Structure (SMILES) | MIC [1] [µM] | Ratio [2] | MIC [3] [µM] | Ratio [4] |
| --- | --- | --- | --- | --- |
| CCCCCCCCCCCCCCC(CO)NC(=O)OC(C)(C)C (stereo not given) | 84 (≈ 30 µg/mL) | 0.12 | 84 (≈ 30 µg/mL) | >5 |
| CCCCCCCCCCCCCCC(CN(CC(=O)OCC)CC(=O)OCC)NC(=O)OC(C)(C)C (stereo not given) | 59 (≈ 31.2 µg/mL) | 0.17 | 59 (≈ 31.2 µg/mL) | >2.7 |
| CCCCCCCCCCCCCCC(CNCC)NC(=O)OC(C)(C)C (stereo not given) | 32 (≈ 12.3 µg/mL) | 0.3 | 32 (≈ 12.3 µg/mL) | >4.9 |
| CCCCCCCCCCCCCCC(CN(CC)CC)NC(=O)OC(C)(C)C (stereo not given) | 15.2 (≈ 6.27 µg/mL) | 0.65 | 15.2 (≈ 6.27 µg/mL) | >10 |
| CCCCCCCCCCCCCCC(CNC(=O)CCCC(=O)O)NC(=O)OC(C)(C)C (stereo not given) | 133 (≈ 62.6 µg/mL) | 0.07 | 133 (≈ 62.6 µg/mL) | >1.2 |
| CCCCCCCCCCCCCCC(N)CN (stereo not given) | 12.6 (≈ 3.23 µg/mL) | 0.8 | 12.6 (≈ 3.23 µg/mL) | >12 |
| CCCCCCCCCCCCCCC(COCc1ccccc1)NCC(=O)OCC (stereo not given) | 72 (≈ 31.2 µg/mL) | 0.13 | 72 (≈ 31.2 µg/mL) | >2.2 |
| CCCCCCCCCCCCCCC(N)CO (stereo not given) | 24 (≈ 6.18 µg/mL) | 0.41 | 49 (≈ 12.6 µg/mL) | >16 |
| CCCCCCCCCCCCCCC(COCc1ccccc1)NC(=O)CCC(=O)O (stereo not given) | 140 (≈ 62.7 µg/mL) | 0.07 | 140 (≈ 62.7 µg/mL) | >1.1 |
| CCCCCCCCCCCCCCC(N)COCc1ccccc1 (stereo not given) | 3.6 (≈ 1.25 µg/mL) | 2.8 | 3.6 (≈ 1.25 µg/mL) | >43 |
| CCCCCCCCCCCCCCC(COCc1ccccc1)N(CC)CC (stereo not given) | 3.1 (≈ 1.25 µg/mL) | 3.2 | 3.1 (≈ 1.25 µg/mL) | >50 |
| CCCCCCCCCCCCCCC(CO)N(CC)CC (stereo not given) | 20 (≈ 6.27 µg/mL) | 0.5 | 40 (≈ 12.5 µg/mL) | >3.9 |
| CCCCCCCCCCCCCCC(O)CNCc1ccccc1 (stereo not given) | 36 (≈ 12.5 µg/mL) | 0.28 | 72 (≈ 25 µg/mL) | >2.2 |
| CCCCCCCCCCCCCCC(O)CNC1CCCCC1 (stereo not given) | 33 (≈ 11.2 µg/mL) | 0.3 | 11 (≈ 3.74 µg/mL) | >14 |
| CCCCCCCCCCCCCCC(N)CN(CC)CC (stereo not given) | 4 (≈ 1.25 µg/mL) | 2.5 | 8 (≈ 2.5 µg/mL) | >19 |
| CCCCCCCCCCCCCCC(CN)NC(=O)OC(C)(C)C (stereo not given) | 30 (≈ 10.7 µg/mL) | 0.3 | 30 (≈ 10.7 µg/mL) | >5.2 |
| CCCCCCCCCCCCCCC(COCc1ccccc1)NC(=O)CCCC(=O)O (stereo not given) | 68 (≈ 31.4 µg/mL) | 0.14 | 68 (≈ 31.4 µg/mL) | >2.3 |
| CCCCCCCCCCCCCCC(COCc1ccccc1)NCC (stereo not given) | 16.6 (≈ 6.24 µg/mL) | 0.6 | 16.6 (≈ 6.24 µg/mL) | >9.5 |
| CC[C@@H](CO)NCCN[C@@H](CC)CO [ETHAMBUTOL] | 9.9 (≈ 2.02 µg/mL) | 1 | > 158 | 1 |
| CO[C@H]1/C=C/O[C@@]2(C)Oc3c(C)c(O)c4c(O)c(c(/C=N/N5CCN(C)CC5)c(O)c4c3C2=O)NC(=O)/C(C)=C\C=C\[C@H](C)[C@H](O)[C@@H](C)[C@@H](O)[C@@H](C)[C@H](OC(C)=O)[C@@H]1C [RIFAMPIN] | 0.152 (≈ 0.125 µg/mL) | 650 | > 2.43 | 65 |
